# Measured values from patent publication US12152038B2, “Vasopressin receptor antagonists and products and methods related thereto” (Neumora Therapeutics, Inc., priority 2017, dated 2024).
# Experiments:
# [1] = target: T1, human Oxytocin Receptor (hOTR) (Homo sapiens, UniProt P30559); experiment: Oxytocin receptor (OTR) antagonist assay (FLIPR calcium, CHEM-1-hOTR cells); type: cell-based
# T1 construct: host or cells: CHEM-1 (ready-to-assay frozen cells)
# T1 sequence (P30559 1-389): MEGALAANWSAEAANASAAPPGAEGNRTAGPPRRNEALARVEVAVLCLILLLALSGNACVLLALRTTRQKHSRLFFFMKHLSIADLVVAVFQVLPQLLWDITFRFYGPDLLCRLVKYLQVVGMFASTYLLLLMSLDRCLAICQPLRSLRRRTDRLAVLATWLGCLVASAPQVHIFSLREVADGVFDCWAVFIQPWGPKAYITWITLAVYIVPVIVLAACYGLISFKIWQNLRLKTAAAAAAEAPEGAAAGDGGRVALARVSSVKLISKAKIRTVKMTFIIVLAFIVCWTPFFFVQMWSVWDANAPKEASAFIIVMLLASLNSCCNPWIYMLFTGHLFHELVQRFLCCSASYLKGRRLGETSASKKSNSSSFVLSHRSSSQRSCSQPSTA
# Method in brief: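 CHEM-1 cells expressing human OTR were loaded with Calcium-6 dye in HBSS/20 mM HEPES and preincubated with compound (10-point, 1:3 series) for 15 min at 37° C. Cells were then challenged with oxytocin at its daily-determined EC80. Calcium fluorescence was read on FLIPR for 3 min after each addition.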
# [2] = Wild-type MDCK permeability and efflux assay (Papp, efflux ratio); type: in vitro ADME; details: dog, pH 7.4, wild-type MDCK cells; for efflux ratio at 1 h, 10 μM: Papp B>A/Papp A>B, read-out: ER WT (Efflux Ratio)
# Method in brief: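 Confluent WT or MDR1-MDCK monolayers (3-day culture) dosed with 10 μM compound, 0.1% DMSO, in HBSS/25 mM HEPES pH 7.4, A>B and B>A, 1 h at 37 °C; LC-MS/MS quantitation. Papp from acceptor/donor ratio; efflux ratio = Papp B>A/A>B; EER = ER(MDR1)/ER(WT).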
IC50 [1] [µM],"Papp A→B at 1 h, 10 μM [2] [×10⁻⁶ cm/s]","efflux ratio at 1 h, 10 μM [2]",Structure (SMILES)
≥ 1,–,–,O=C(N1CC2(C1)CN(c1cc(F)cc(F)n1)C2)N1CCOc2cc(Cl)ccc21 [1-51]
–,> 20,< 1,O=C(N1CC2(C1)CN(c1cccnc1)C2)N1CCOc2cc(Cl)ccc21 [1-72]
< 0.1,> 20,< 1,CC1COc2cc(Cl)ccc2N1C(=O)N1CC2(C1)CN(c1ccccn1)C2 (stereo not shown) [1-60]
< 0.1,> 20,< 1,Cc1cncc(N2CC3(CN(C(=O)N4c5ccc(Cl)cc5OCC4C)C3)C2)n1 (stereo not shown) [21-3]
0.1 to 0.5,–,–,"CC1COc2cc(F)ccc2N1C(=O)N1CC2(C1)CN(c1ccccn1)C2 (single isomer, unassigned) [1-66-B]"
< 0.1,> 20,< 1,"CC1COc2cc(Cl)ccc2N1C(=O)N1CC2(C1)CN(c1ccccn1)C2 (single isomer, unassigned) [1-60-B]"
0.5 to 1,> 20,< 1,"CC1COc2cc(Cl)ccc2N1C(=O)N1CC2(C1)CN(c1nn(C)c3ncccc13)C2 (single isomer, unassigned) [20-15-B]"
0.5 to 1,–,–,Cc1nc(N2CC3(CN(C(=O)N4CCOc5cc(Cl)ccc54)C3)C2)ccc1F [1-30]
0.1 to 0.5,> 20,< 1,"COc1ccc2c(c1)OCC(C)N2C(=O)N1CC2(C1)CN(c1ccc(F)cn1)C2 (single isomer, unassigned) [1-59-B]"
0.5 to 1,> 20,1 to 2,Cc1cnnc(N2CC3(CN(C(=O)N4c5ccc(Cl)cc5OCC4C)C3)C2)c1 (stereo not shown) [21-4]
–,> 20,< 1,O=C(N1CC2(C1)CN(c1cccnn1)C2)N1CCOc2cc(Cl)ccc21 [1-71]
0.1 to 0.5,> 20,1 to 2,CC1COc2cc(Cl)ccc2N1C(=O)N1CC2(C1)CN(c1ncncc1F)C2 (stereo not shown) [21-5]
< 0.1,> 20,1 to 2,"CC1COc2cc(Cl)ccc2N1C(=O)N1CC2(C1)CN(c1cnccn1)C2 (single isomer, unassigned) [1-58-B]"
≥ 1,> 20,< 1,Cc1cncc(N2CC3(CN(C(=O)N4CCOc5cc(Cl)ccc54)C3)C2)n1 [1-22]
–,> 20,< 1,O=C(N1CC2(C1)CN(c1ccc(F)cn1)C2)N1CCOc2cc(F)ccc21 [1-64]
0.1 to 0.5,> 20,< 1,"CC1COc2cc(Cl)ccc2N1C(=O)N1CC2(C1)CN(c1ncc(F)cn1)C2 (single isomer, unassigned) [18-2-B]"
0.1 to 0.5,–,–,N#Cc1cccc(N2CC3(CN(C(=O)N4CCOc5cc(Cl)ccc54)C3)C2)n1 [1-39]

IC50 [1] [µM],"Papp A→B at 1 h, 10 μM [2] [×10⁻⁶ cm/s]","efflux ratio at 1 h, 10 μM [2]",Structure (SMILES)
≥ 1,–,–,CCc1cnc(N2CC3(CN(C(=O)N4c5ccc(Cl)cc5OCC4C)C3)C2)nc1 (stereo not shown) [21-9]
0.5 to 1,10 to 20,< 1,"CC1COc2cc(Cl)ccc2N1C(=O)N1CC2(C1)CN(c1noc3ccccc13)C2 (stereo not shown) [21-1, (6-(benzo[d]isoxazol-3-yl)-2,6-diazaspiro[3.3]heptan-2-yl)(7-chloro-3-methyl-2,3-dihydro-4H-benzo[b][1,4]oxazin-4-yl)methanone]"
0.1 to 0.5,> 20,< 1,Cc1nccc(N2CC3(CN(C(=O)N4c5ccc(Cl)cc5OCC4C)C3)C2)n1 (stereo not shown) [21-8]
< 0.1,–,–,"CCC1COc2cc(Cl)ccc2N1C(=O)N1CC2(C1)CN(c1ccc(F)cn1)C2 (single isomer, unassigned) [1-55-B]"
≥ 1,–,–,O=C(N1CC2(C1)CN(c1cccc(F)n1)C2)N1CCOc2cc(Cl)ccc21 [1-69]
< 0.1,–,–,"CC1COc2cc(Cl)ccc2N1C(=O)N1CC2(C1)CN(c1ccc(F)cn1)C2 (single isomer, unassigned) [1-73-B]"
–,> 20,< 1,O=C(N1CC2(C1)CN(c1cnc(F)cn1)C2)N1CCOc2cc(Cl)ccc21 [1-18]
≥ 1,> 20,1 to 2,O=C(N1CC2(C1)CN(c1cc(F)ccn1)C2)N1CCOc2cc(Cl)ccc21 [1-70]
0.1 to 0.5,> 20,< 1,CC1COc2cc(Cl)ccc2N1C(=O)N1CC2(C1)CN(c1ccncn1)C2 (stereo not shown) [21-6]
≥ 1,–,–,"O=C(N1CC2(C1)CN(c1ccc(F)cn1)C2)N1CCC(O)c2cc(Cl)ccc21 (single isomer, unassigned) [13-1-B]"
0.1 to 0.5,–,–,"CC1COc2cc(F)ccc2N1C(=O)N1CC2(C1)CN(c1ncccc1F)C2 (single isomer, unassigned) [1-67-A]"
0.1 to 0.5,> 20,1 to 2,"CC1COc2cc(F)ccc2N1C(=O)N1CC2(C1)CN(c1cnccn1)C2 (single isomer, unassigned) [1-65-B]"
0.5 to 1,–,–,Cc1cccc(N2CC3(CN(C(=O)N4CCOc5cc(Cl)ccc54)C3)C2)n1 [1-3]
0.1 to 0.5,> 20,< 1,CC1COc2cc(Cl)ccc2N1C(=O)N1CC2(C1)CN(c1ncccc1C#N)C2 (stereo not shown) [21-2]
0.1 to 0.5,–,–,CC1COc2cc(F)ccc2N1C(=O)N1CC2(C1)CN(c1ncccc1F)C2 (stereo not shown) [1-67]
–,> 20,< 1,"Cc1cnc(N2CC3(CN(C(=O)N4c5ccc(Cl)cc5OCC4C)C3)C2)nc1 (single isomer, unassigned) [20-13-B]"
0.5 to 1,10 to 20,1 to 2,CC1COc2cc(Cl)ccc2N1C(=O)N1CC2(C1)CN(c1nccc(C(F)(F)F)n1)C2 (stereo not shown) [21-10]
